These results are taken from ChEMBL document CHEMBL1137734, “2D- and 3D-QSAR of tocainide and mexiletine analogues acting as Na(v)1.4 channel blockers” (Eur J Med Chem, 2009).

pEC50: −log10 of the molar value.

The experiment deals with Sodium channel protein type 4 subunit alpha (Homo sapiens, UniProt P35499). Nature of the experiment: Inhibition of Nav1.4 ion channel assessed as reduction in cumulative sodium current.
Sodium channel protein type 4 subunit alpha, sequence (P35499 whole entry): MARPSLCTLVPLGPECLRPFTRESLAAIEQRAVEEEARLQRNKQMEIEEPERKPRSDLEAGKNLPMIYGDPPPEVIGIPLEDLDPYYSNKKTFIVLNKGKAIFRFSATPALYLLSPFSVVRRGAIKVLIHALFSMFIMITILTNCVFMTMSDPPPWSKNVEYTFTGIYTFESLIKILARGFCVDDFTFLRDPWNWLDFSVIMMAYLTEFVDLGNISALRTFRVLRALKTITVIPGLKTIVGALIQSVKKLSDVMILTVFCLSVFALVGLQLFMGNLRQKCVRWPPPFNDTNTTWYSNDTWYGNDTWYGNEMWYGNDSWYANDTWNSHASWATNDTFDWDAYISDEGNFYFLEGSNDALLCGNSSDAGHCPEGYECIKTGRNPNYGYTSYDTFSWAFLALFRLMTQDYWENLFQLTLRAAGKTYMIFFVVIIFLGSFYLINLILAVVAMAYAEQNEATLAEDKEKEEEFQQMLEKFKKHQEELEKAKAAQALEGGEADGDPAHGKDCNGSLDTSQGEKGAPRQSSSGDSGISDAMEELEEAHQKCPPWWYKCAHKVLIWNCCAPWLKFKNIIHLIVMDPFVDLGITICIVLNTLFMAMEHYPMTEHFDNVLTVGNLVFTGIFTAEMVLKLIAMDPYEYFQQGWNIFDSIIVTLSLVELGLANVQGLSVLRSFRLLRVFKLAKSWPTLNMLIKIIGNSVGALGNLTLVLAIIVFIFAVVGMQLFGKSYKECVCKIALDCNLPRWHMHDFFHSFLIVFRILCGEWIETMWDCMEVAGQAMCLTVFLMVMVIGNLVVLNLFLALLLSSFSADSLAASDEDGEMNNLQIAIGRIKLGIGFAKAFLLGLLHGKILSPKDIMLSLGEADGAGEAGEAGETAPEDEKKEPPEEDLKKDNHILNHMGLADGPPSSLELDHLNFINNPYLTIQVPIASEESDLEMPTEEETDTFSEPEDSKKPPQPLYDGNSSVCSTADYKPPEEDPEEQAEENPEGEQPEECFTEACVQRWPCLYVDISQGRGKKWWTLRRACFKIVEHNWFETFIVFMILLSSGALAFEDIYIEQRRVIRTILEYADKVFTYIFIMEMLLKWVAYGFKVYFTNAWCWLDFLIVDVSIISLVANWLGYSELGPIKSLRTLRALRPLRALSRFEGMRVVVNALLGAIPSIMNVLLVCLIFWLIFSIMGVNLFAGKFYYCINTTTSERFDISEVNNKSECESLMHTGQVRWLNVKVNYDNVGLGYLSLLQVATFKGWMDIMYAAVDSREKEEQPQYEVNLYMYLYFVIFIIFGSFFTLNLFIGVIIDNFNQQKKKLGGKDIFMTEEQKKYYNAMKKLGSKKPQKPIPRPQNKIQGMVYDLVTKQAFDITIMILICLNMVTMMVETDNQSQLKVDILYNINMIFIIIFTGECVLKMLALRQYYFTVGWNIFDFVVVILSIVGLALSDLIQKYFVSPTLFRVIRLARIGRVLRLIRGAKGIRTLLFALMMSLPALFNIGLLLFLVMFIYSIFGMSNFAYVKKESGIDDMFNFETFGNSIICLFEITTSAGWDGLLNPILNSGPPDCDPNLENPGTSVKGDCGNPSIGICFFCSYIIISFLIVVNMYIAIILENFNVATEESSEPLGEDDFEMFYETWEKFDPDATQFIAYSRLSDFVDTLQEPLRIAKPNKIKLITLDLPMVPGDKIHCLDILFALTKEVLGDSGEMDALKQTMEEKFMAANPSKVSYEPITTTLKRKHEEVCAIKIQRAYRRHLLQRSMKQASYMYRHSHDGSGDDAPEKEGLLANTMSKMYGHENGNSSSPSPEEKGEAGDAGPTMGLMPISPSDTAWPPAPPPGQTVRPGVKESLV
In the case of `Cc1cc(Cl)cc(C)c1OC[C@@H](N)c1ccccc1`, the pEC50 (in general, the EC50 on a negative log10 scale, so that one unit is a factor of ten) was 5.10.

For `N[C@@H](COc1ccccc1)c1ccccc1`, the pEC50 was 5.40.

As for `N[C@H](COc1ccc(Cl)cc1)c1ccccc1`, the pEC50 was 5.52.

On to `Cc1cccc(C)c1OC[C@H](N)c1ccccc1`, for which the pEC50 is 5.52.

With `Cc1cccc(C)c1OC[C@@H](N)c1ccccc1`, the pEC50 is 5.52.

Consider `Cc1cc(Cl)cc(C)c1OC[C@H](N)c1ccccc1`, for which the pEC50 is 4.71.

For the molecule `Cc1cc(Cl)ccc1OC[C@H](N)c1ccccc1`, the negative-log EC50 (pEC50) was 4.82.

For the molecule `N[C@H](COc1ccccc1)c1ccccc1`, the pEC50 is 4.80.

In the case of `Cc1cccc(C)c1SC[C@@H](C)CN`, the pEC50 was 5.72.

With `Cc1cccc(C)c1OC[C@H](N)C(C)C`, the pEC50 was 5.24.

Consider `Cc1cccc(C)c1SC[C@H](C)CN`, for which the pEC50 was 5.57.

As to `Cc1cccc(C)c1SC[C@@H](N)c1ccccc1`, the pEC50 is 5.33.

Consider `Cc1cccc(C)c1OC[C@H](C)CN`, for which the pEC50 is 4.63.

Regarding `Cc1cccc(C)c1NC(=O)[C@@H](C)NCc1ccccc1`, the pEC50 is 4.95.

For the molecule `Cc1cccc(C)c1NC(=O)[C@H](C)NCc1ccccc1`, the pEC50 is 5.04.

Regarding `Cc1cccc(C)c1NC(=O)[C@@H]1CCCN1`, the pEC50 is 4.39.

On to `Cc1cccc(C)c1NC(=O)[C@H]1CCCN1C`, for which the pEC50 was 4.17.

For `Cc1cccc(C)c1NC(=O)[C@@H]1CCCN1C`, the pEC50 was 4.55.

Regarding `Cc1cccc(C)c1SC[C@H](N)c1ccccc1`, the pEC50 was 5.15.

With `Cc1cccc(C)c1N(C)C(=O)[C@H]1CCCN1C`, the pEC50 was 3.30.

As to `Cc1cccc(C)c1N(C)C(=O)[C@H]1CCCN1`, the pEC50 was 3.66.

With `Cc1cccc(C)c1N(C)C(=O)[C@@H]1CCCN1`, the pEC50 is 4.17.

With `Cc1cccc(C)c1N(C)C(=O)[C@@H]1CCCN1C`, the pEC50 was 3.70.

With `Cc1cccc(C)c1NC(=O)[C@@H]1CCCN1Cc1ccccc1`, the pEC50 is 5.00.

For `Cc1cccc(C)c1NC(=O)[C@@H]1CCN(Cc2ccccc2)C1`, the pEC50 is 5.77.

For the molecule `Cc1cccc(C)c1OC[C@@H](C)CN`, the pEC50 is 4.76.

On to `Cc1cc(Cl)cc(C)c1OC[C@H](C)CN`, for which the pEC50 was 5.43.

As to `Cc1cc(Cl)ccc1OC[C@@H](N)Cc1ccccc1`, the pEC50 is 4.64.

On to `Cc1cccc(C)c1NC(=O)[C@H]1CCN(Cc2ccccc2)C1`, for which the pEC50 was 5.64.

For `Cc1cccc(C)c1OC[C@H](N)Cc1ccccc1`, the pEC50 was 5.62.

`Cc1cccc(C)c1N1CN2CCC[C@@H]2C1=O`: the negative-log EC50 (pEC50) was 3.30.

For `Cc1cc(Cl)cc(C)c1OC[C@@H](C)CN`, the pEC50 was 5.54.

Regarding `Cc1cccc(C)c1NC(=O)[C@H]1CCCN1`, the pEC50 was 4.92.

Turning to `Cc1cccc(C)c1NC(=O)[C@H]1CCCN1Cc1ccccc1`, the pEC50 was 4.50.

Regarding `Cc1cccc(C)c1OC[C@@H](N)C(C)C` (racemic), the pEC50 is 5.24.

For the molecule `Cc1cccc(C)c1OC[C@@H](C)N` [(R)-MEXILETINE], the pEC50 is 4.64.

As for `Cc1cccc(C)c1NC(=O)[C@@H](C)N` [(R)-TOCAINIDE], the pEC50 was 3.56.

Turning to `Cc1cccc(C)c1OC[C@H](C)N` [(S)-MEXILETINE], the pEC50 is 4.57.

On to `Cc1cccc(C)c1NC(=O)[C@H](C)N` [S-TOCAINIDE], for which the negative logarithm of the EC50 (pEC50) was 3.65.
